For 50 molecules, IC50 results are on record in patent US9062026B2, “Fused pyrimidines and substituted quinazolines as inhibitors of p97” (Cleave Biosciences, Inc., priority 2012, dated 2015).

One may read the pIC50 as the negative decadic logarithm of the IC50, by convention in mol/L.

pIC50: −log10 of the molar value. Read-outs that look alike come from different tables or passages of the source.

One experiment deals with A549 K48. The experiment can be described thus: A549 K48 cell intensity (lysine-48 poly-ubiquitin accumulation, immunofluorescence). It counts as cell-based. The conditions noted are these: Homo sapiens. On the procedure: Image-analysis is used to generate quantitative data from these assays that can be fit to a four-parameter sigmoid curve to derive IC50 values. Substrates of the ubiquitin-proteasome system, such as p53, are monitored after tumor cell lines are incubated with compounds for several hours. Accumulation of these proteins indicates an inhibition of proteasome-mediated degradation. Accumulation of lysine-48 chain linkage of poly-ubiquitin is also monitored by immunofluorescence as an indicator of ubiquitin-proteasome system inhibition. Both LC3 and SQSTM1 are mediators of autophagy. The localization and amounts of these proteins are monitored by immunofluorescence and report on the activity and inhibition of autophagy in response to p97 inhibition.

Another experiment deals with p97 (Homo sapiens (Human), UniProt P55072). Nature of the experiment: P97 ATPase biochem assay (ADP Glo). The class given is biochemical. On the procedure: The ATPase assay is performed according the following protocol: Purified enzyme (20 nM p97), substrate (20 μM ATP) and a dose titration of compounds are mixed in buffer (50 mM TRIS pH 7.5, 20 mM MgCl2, 0.02% TX-100, 1 mM DTT, 0.2% (v/v) glycerol) and incubated at 37° C. for 15 minutes. The reaction is terminated and the level of product generated is measured using the ADP Glo Assay Kit (Promega, Madison Wis.). Plotting product generated versus compound concentration and using a four-parameter fit model generates an IC50 value for each compounds.

The mark [1] stands for this setting: 20 nM p97, 20 μM ATP, 37° C., 15 minutes, read-out: p97 biochem IC50.

p97, sequence (P55072 whole entry): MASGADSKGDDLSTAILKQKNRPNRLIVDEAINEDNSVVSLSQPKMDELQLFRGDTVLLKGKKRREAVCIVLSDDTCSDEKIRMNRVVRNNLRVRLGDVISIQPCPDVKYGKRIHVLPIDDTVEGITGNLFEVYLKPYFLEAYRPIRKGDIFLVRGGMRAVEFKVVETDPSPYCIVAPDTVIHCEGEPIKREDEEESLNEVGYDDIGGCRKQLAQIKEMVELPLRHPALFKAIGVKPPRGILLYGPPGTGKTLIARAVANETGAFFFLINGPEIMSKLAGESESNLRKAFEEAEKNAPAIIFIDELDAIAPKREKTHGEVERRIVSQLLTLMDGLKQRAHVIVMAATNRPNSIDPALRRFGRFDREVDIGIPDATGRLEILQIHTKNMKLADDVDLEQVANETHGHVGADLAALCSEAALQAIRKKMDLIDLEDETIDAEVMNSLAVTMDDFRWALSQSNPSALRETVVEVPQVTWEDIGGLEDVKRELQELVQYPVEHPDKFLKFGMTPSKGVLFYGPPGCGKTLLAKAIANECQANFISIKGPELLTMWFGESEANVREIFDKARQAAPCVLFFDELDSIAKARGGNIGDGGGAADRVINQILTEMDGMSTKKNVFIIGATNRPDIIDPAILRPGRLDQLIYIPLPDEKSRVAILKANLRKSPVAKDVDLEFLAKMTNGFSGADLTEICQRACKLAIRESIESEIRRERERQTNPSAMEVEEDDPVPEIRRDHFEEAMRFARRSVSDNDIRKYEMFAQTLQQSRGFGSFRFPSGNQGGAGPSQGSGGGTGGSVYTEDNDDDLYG

In the case of `CN(C)Cc1cc2ccccc2n1-c1nc2c(c(NCc3ccccc3)n1)CCCC2` [N-benzyl-2-{2-[(dimethylamino)methyl]-1H-indol-1-yl}-5,6,7,8-tetrahydroquinazolin-4-amine], the pIC50 was more than 5.00 with A549 K48 and more than 6.52 on p97 (read-out: p97 IC50). Regarding `COc1cc2c(C(N)=O)cccc2n1-c1nc2c(c(NCc3ccccc3)n1)COCC2` [1-[4-(benzylamino)-5H,7H,8H-pyrano[4,3-d]pyrimidin-2-yl]-2-methoxy-1H-indole-4-carboxamide], the figures for the negative-log IC50 (pIC50) in the experiment on A549 K48 and at p97 (read-out: p97 IC50) were more than 5.00 and more than 7.52, respectively.

Regarding `OCc1cc2ccccc2n1-c1nc2c(c(NCc3ccccc3)n1)CCCC2` [{1-[4-(benzylamino)-5,6,7,8-tetrahydroquinazolin-2-yl]-1H-indol-2-yl}methanol], the pIC50 with A549 K48 was more than 5.00; at p97 (read-out: p97 IC50), more than 7.00.

Take `COc1cc2ccccc2n1-c1nc2c(c(NCc3ccccc3)n1)COCC2` [N-benzyl-2-(2-methoxy-1H-indol-1-yl)-5H,7H,8H-pyrano[4,3-d]pyrimidin-4-amine]: the pIC50 was more than 5.00 in the experiment with A549 K48 and more than 6.52 on p97 (read-out: p97 IC50). For the molecule `Cc1nc2c(C#N)cccc2n1-c1nc2c(c(NCc3ccccc3)n1)CCCC2` [1-[4-(benzylamino)-5,6,7,8-tetrahydroquinazolin-2-yl]-2-methyl-1H-1,3-benzodiazole-4-carbonitrile], the pIC50 in the experiment with A549 K48 is more than 5.00; at p97 (read-out: p97 IC50), more than 7.00.

As to `COCCOc1cccc2c(NCc3ccccc3)nc(-n3c(C)cc4ccccc43)nc12` [N-benzyl-8-(2-methoxyethoxy)-2-(2-methyl-1H-indol-1-yl)quinazolin-4-amine], the pIC50 in the experiment with A549 K48 is more than 5.00; on p97 (read-out: p97 IC50), more than 7.00.

As to `COC(=O)NCc1cc2ccccc2n1-c1nc2c(c(NCc3ccccc3)n1)CCCC2` [methyl N-({1-[4-(benzylamino)-5,6,7,8-tetrahydroquinazolin-2-yl]-1H-indol-2-yl}methyl)carbamate], the results for the pIC50 in the experiment with A549 K48 and on p97 (read-out: p97 IC50) were more than 5.00 and more than 6.52, respectively.

As to `COc1cc2c(C#N)cccc2n1-c1nc2c(c(NCc3ccccc3)n1)COCC2` [1-[4-(benzylamino)-5H,7H,8H-pyrano[4,3-d]pyrimidin-2-yl]-2-methoxy-1H-indole-4-carbonitrile], the results for the pIC50 in the experiment with A549 K48 and on p97 (read-out: p97 IC50) were more than 5.00 and more than 7.00, respectively. `COc1cccc2c(NCc3ccccc3)nc(-n3c(OC)cc4ccccc43)nc12` [N-benzyl-8-methoxy-2-(2-methoxy-1H-indol-1-yl)quinazolin-4-amine]: the pIC50 is more than 5.00 with A549 K48 and more than 7.00 at p97 (read-out: p97 IC50).

Consider `COc1cc2ccccc2n1-c1nc2c(c(NCc3ccccc3)n1)CCCC2` [N-benzyl-2-(2-methoxy-1H-indol-1-yl)-5,6,7,8-tetrahydroquinazolin-4-amine], for which the pIC50 in the experiment with A549 K48 is more than 5.00; on p97 (read-out: p97 IC50), more than 7.52.

For `NC(=O)NCc1cc2ccccc2n1-c1nc2c(c(NCc3ccccc3)n1)CCCC2` [({1-[4-(benzylamino)-5,6,7,8-tetrahydroquinazolin-2-yl]-1H-indol-2-yl}methyl)urea], the pIC50 in the experiment with A549 K48 was more than 5.00; at p97 (read-out: p97 IC50) it was more than 7.00.

Take `Cc1cc2c(C(N)=O)cccc2n1-c1nc2c(c(NCc3ccccc3)n1)COCC2` [1-[4-(benzylamino)-5H,7H,8H-pyrano[4,3-d]pyrimidin-2-yl]-2-methyl-1H-indole-4-carboxamide]: the pIC50 in the experiment with A549 K48 is more than 5.00. In the case of `c1ccc(CNc2nc(-n3c(CN4CCOCC4)cc4ccccc43)nc3c2CCCC3)cc1` [N-benzyl-2-[2-(morpholin-4-ylmethyl)-1H-indol-1-yl]-5,6,7,8-tetrahydroquinazolin-4-amine], the negative logarithm of the IC50 (pIC50) at p97 (read-out: p97 IC50) is more than 6.52. Turning to `Nc1nc2ccccc2n1-c1nc(NCc2ccccc2)c2nc[nH]c2n1`, the negative logarithm of the IC50 (pIC50) on p97 (setting [1]) was more than 5.30.

`Cc1[nH]c2ccccc2c1-c1nc2c(c(NCc3ccccc3)n1)CCCC2` [N-benzyl-2-(2-methyl-1H-indol-3-yl)-5,6,7,8-tetrahydroquinazolin-4-amine]: the pIC50 on p97 (read-out: p97 IC50) was more than 6.52. With `COCCOc1cccc2c(NCc3ccccc3)nc(-n3c(OC)cc4c(C#N)cccc43)nc12` [1-[4-(benzylamino)-8-(2-methoxyethoxy)quinazolin-2-yl]-2-methoxy-1H-indole-4-carbonitrile], the pIC50 on p97 (read-out: p97 IC50) is more than 7.00. Take `COc1cccc2c(NCc3ccccc3)nc(Nc3ccccn3)nc12`: the pIC50 at p97 (setting [1]) is more than 5.00. As for `Cc1cc2ccccc2n1-c1nc2c(c(NCc3ccccc3)n1)CNC2`, the pIC50 on p97 (setting [1]) was more than 5.70. As to `Cc1cc2c(C#N)cccc2n1-c1nc2c(c(NCc3ccccc3)n1)COCC2` [1-[4-(benzylamino)-5H,7H,8H-pyrano[4,3-d]pyrimidin-2-yl]-2-methyl-1H-indole-4-carbonitrile], the pIC50 at p97 (read-out: p97 IC50) was more than 7.00. Turning to `COC(=O)N1CCc2c(nc(-n3c(CN)cc4ccccc43)nc2NCc2ccccc2)C1`, the negative logarithm of the IC50 (pIC50) at p97 (setting [1]) is more than 5.70.

On to `COCCOc1cccc2c(NCc3ccccc3)nc(-n3c(CNC(=O)OC)cc4ccccc43)nc12` [methyl N-({1-[4-(benzylamino)-8-(2-methoxyethoxy)quinazolin-2-yl]-1H-indol-2-yl}methyl)carbamate], for which the pIC50 on p97 (read-out: p97 IC50) was more than 6.52. For the molecule `COc1cccc2c(NCc3ccccc3)nc(-n3c(/C=C/C#N)cc4ccccc43)nc12` [(2E)-3-{1-[4-(benzylamino)-8-methoxyquinazolin-2-yl]-1H-indol-2-yl)prop-2-enenitrile], the pIC50 at p97 (read-out: p97 IC50) was more than 6.52. The same measure, in the same setting: then `Cc1cc2ccccc2n1-c1nc2c(c(NCc3ccccc3)n1)COCC2` [N-benzyl-2-(2-methyl-1H-indol-1-yl)-5H,7H,8H-pyrano[4,3-d]pyrimidin-4-amine], with more than 6.52. Take `COc1cccc2c(NCc3ccccc3)nc(-n3cc(C)c4ccccc43)nc12`: on p97 (setting [1]), the pIC50 is more than 5.00. On to `COCc1cccc2c(NCc3ccccc3)nc(-n3c(N)nc4ccccc43)nc12`, for which the negative-log IC50 (pIC50) at p97 (setting [1]) is more than 5.70.

On to `CCc1cc2ccccc2n1-c1nc2c(c(NCc3ccccc3)n1)CCCC2`, for which the pIC50 at p97 (setting [1]) is more than 5.30.

On to `COc1cccc2c(NCc3ccccc3)nc(-n3c(CN)cc4ccccc43)nc12`, for which, on p97 (setting [1]), the pIC50 was more than 5.70. In the case of `CNCC(=O)N1CCc2c(nc(-n3c(CN)cc4ccccc43)nc2NCc2ccccc2)C1`, at p97 (setting [1]), the pIC50 was more than 5.00. Still for that read-out and setting: then `COC1=Nc2ccccc2C1c1nc(NCc2ccc(F)cc2)c2cccc(OC)c2n1` (stereo not shown), with more than 5.70. On to `COc1nc2ccccc2n1-c1nc(NCc2ccccc2)c2ncsc2n1`, for which the pIC50 on p97 (setting [1]) is more than 5.70. `Cc1cc2ccccc2n1-c1nc2c(c(NCc3ccccc3)n1)CN(C(C)C)CC2` [N-benzyl-2-(2-methyl-1H-indol-1-yl)-6-(propan-2-yl)-5H,6H,7H,8H-pyrido[4,3-d]pyrimidin-4-amine]: the pIC50 at p97 (read-out: p97 IC50) is more than 6.52. As to `COCc1cc2ccccc2n1-c1nc2c(c(NCc3ccccc3)n1)CCCC2`, the pIC50 at p97 (setting [1]) was more than 5.70. For the molecule `C#CC(=O)NCc1cc2ccccc2n1-c1nc2c(c(NCc3ccccc3)n1)CCCC2` [N-({1-[4-(benzylamino)-5,6,7,8-tetrahydroquinazolin-2-yl]-1H-indol-2-yl}methyl)prop-2-ynamide], the pIC50 at p97 (read-out: p97 IC50) is more than 7.00. On to `COc1cccc2c(NCc3ccccc3)nc(-n3c(N)nc4cccc(F)c43)nc12`, for which the pIC50 on p97 (setting [1]) is more than 5.00. For the molecule `COCCOc1cccc2c(NCc3ccccc3)nc(-n3c(C)cc4c(C#N)cccc43)nc12` [1-[4-(benzylamino)-8-(2-methoxyethoxy)quinazolin-2-yl]-2-methyl-1H-indole-4-carbonitrile], the negative-log IC50 (pIC50) on p97 (read-out: p97 IC50) was more than 7.52. On to `COc1cccc2c(NCc3ccccc3)nc(Nc3ncc[nH]3)nc12`, for which the pIC50 at p97 (setting [1]) was more than 5.00.

As to `COc1cccc2c(NCc3ccccc3)nc(-n3c(/C=C(/C#N)C(N)=O)cc4ccccc43)nc12` [drawing 243], the pIC50 on p97 (setting [1]) is more than 5.70.

As to `COc1cccc2c(NCc3ccccc3)nc(N3c4ccccc4CC3C)nc12` (stereo not shown), the pIC50 on p97 (setting [1]) is more than 5.30. Take `CN(C)Cc1cc2ccccc2n1-c1nc2c(c(NCc3ccccc3)n1)CCCC2` [drawing 229]: the pIC50 at p97 (setting [1]) was more than 5.70.

`Cc1cc2c(Cl)cccc2n1-c1nc2c(c(NCc3ccccc3)n1)CNCC2` [N-benzyl-2-(4-chloro-2-methyl-1H-indol-1-yl)-5H,6H,7H,8H-pyrido[4,3-d]pyrimidin-4-amine]: the pIC50 at p97 (read-out: p97 IC50) is more than 6.52.

In the case of `CC(=O)N1CCc2nc(-n3c(C)cc4ccccc43)nc(NCc3ccccc3)c2C1`, the pIC50 on p97 (setting [1]) is more than 5.70. `COc1cccc2c(NCc3ccccc3)nc(-n3c(OC)cc4ccccc43)nc12` [drawing 204]: at p97 (setting [1]), the pIC50 is more than 5.70.

As for `COc1cc2c(C#N)cccc2n1-c1nc2c(c(NCc3ccccc3)n1)CNCC2` [1-[4-(benzylamino)-5H,6H,7H,8H-pyrido[4,3-d]pyrimidin-2-yl]-2-methoxy-1H-indole-4-carbonitrile], on p97 (read-out: p97 IC50), the pIC50 was more than 6.52.

As to `COc1cccc2c(NCc3ccccc3)nc(-n3c(OC)nc4ccccc43)nc12`, the pIC50 on p97 (setting [1]) is more than 5.70. As to `CC(=O)N1Cc2nc(-n3c(C)cc4ccccc43)nc(NCc3ccccc3)c2C1`, the pIC50 on p97 (setting [1]) is more than 5.70.

Regarding `COc1cccc2c(NCc3ccccc3)nc(-n3c(C)cc4ccccc43)nc12`, the pIC50 on p97 (setting [1]) is more than 5.70.

Take `COc1cccc2c(NCc3ccccc3)nc(C(C)c3ccccc3)nc12` (stereo not shown): the pIC50 at p97 (setting [1]) is more than 5.00. For the molecule `Cc1nc2ccccn2c1-c1nc2c(c(NCc3ccccc3)n1)CCCC2` [N-benzyl-2-{2-methylimidazo[1,2-a]pyridin-3-yl}-5,6,7,8-tetrahydroquinazolin-4-amine], the pIC50 at p97 (read-out: p97 IC50) was more than 6.52. As to `COc1cccc2c(NCc3ccccc3)nc(-n3cnc4ccccc43)nc12`, the pIC50 at p97 (setting [1]) is more than 5.70. Consider `COc1cccc2c(NCc3ccccc3)nc(-n3c(CN)nc4sccc43)nc12`, for which the negative-log IC50 (pIC50) at p97 (setting [1]) is more than 5.70.
